# Laboratory results published in patent US11000555B2, “Method for preparing a limax compound and therapeutic use thereof” (GUANGXI JIUFU BIOTECHNOLOGY CO., LTD, priority 2017, dated 2021).
# Read-outs that look alike come from different tables or passages of the source. Marks after values point to notes of the source that are not given here.
# Columns and labels:
# mice [1] = assay: Mouse spontaneous activity test; format: in vivo, Kunming mice
# Experimental: (§1) Forty Kunming mice, half males and half females, were fasted for 12 h but free to drink water. The mice were randomly divided into four groups: a blank control group, a low does Compound group (0.4 g/kg, ig), a high dose Compound group (0.8 g/kg, ig) and a positive drug control group (Estazolam, 2 mg/kg). The mice were placed into the YLS-1A multifunctional recorder for spontaneous activities of small animals. After 5 minutes of adaptation, the number of the mice's spontaneous activities before administration were recorded, and the recording lasted for 10 minutes. The room was kept quiet during recording, at a room temperature of 20-24° C. After this, each group of mice was administered according to the above doses, and the number of spontaneous activities within 10 min were recorded 45 min later. The blank control group was given the same volume of normal saline (ig).
# mice [2] = assay: Amphetamine-induced hyperexcitability test of mice; format: in vivo, Kunming mice
# Experimental: as §1, with “the” for “the number of spontaneous activities within 10 min were recorded 45 min later. The”, “(ig). Thirty minutes after administration, each mouse was given an intraperitoneal injection of amphetamine (8 mg/kg). Fifteen minutes later, the mice were placed in the recorder to observe and record the number of activities within 10 min.” for “(ig).”
# mice [3] = conditions: mouse, in vivo; for Duration of mice staying in companion box: both, Kunming
# From the text: A conditioned place preference box was composed of black and white cuboids (30 cm×15 cm×15 cm), a movable partition plate is arranged in the middle of the box body to divide the box into two cuboids of the same volume, and the rat and mice can freely move from one cuboid to another when the partition plate is removed. Inner surfaces of one cuboid of the box body except the glass panel is painted black, the bottom plate is made to be a rough surface by using a soft blanket, the other cuboid of the box body except the glass surface is painted white, the bottom plate is made to be a smooth surface, and the whole experimental box has visual and tactile cues.
# Mice were tested for natural preference one day prior to dosing to eliminate mice with significant preference on one side of the box and to exclude the effects of unconditioned place preference on the experimental results.
# Each group of animals was administered twice daily at an interval of 8 hours (8:00, 16:00). […] The mice were placed in the white cuboid, which was the non-preferred side, after administration, and placed in the black cuboid, which was the preferred side, after administration of normal saline. The mice were kept in the box for 45 min, trained for 6 days. The place preference test was performed 24 h after the last administration. The partition plate of the preferred cuboid was removed, the mice were placed in the middle of the box one by one and observed for 15 minutes, and the duration of each of the mice staying in each cuboid was recorded on the basis of the positions of their heads.
# rats = assay: Physical dependence test: induced withdrawal test for the rats; conditions: rat, in vivo
# Experimental: The compound group was administered (ig) twice a day according to the dose increasing principle, at daily doses of 0.5, 1.0, 1.5, 2.0, 2.5, 3.0 g/kg. The dose was increased every day from 0.5 g/kg to 3.0 g/kg on day 6 which was adopted the same on day 7. The negative control group was given (ig) the same volume of vegetable oil per day at the same time and for the same times as the compound group. On day 8, the rats in each group were given naloxone (5 mg/kg, ip) to induce withdrawal, and the withdrawal status of the rats within 30 min and the weight change one hour before and after the inducement were observed. The evaluation criteria of withdrawal symptoms of rats were established by referring to the Tomoji Yanagita evaluation criteria and our pre-experimental results (see Appendix Table 17). The withdrawal scores and weight loss values of each group of rats were statistically processed. Weight loss value=weight before inducement−weight after inducement.
# [4] = tested on: morphine-induced place preference of mice; assay: Conditioned place preference of morphine-induced mice; format: in vivo, Kunming mice
# Experimental: The mice were acclimatized for 3 days, the natural place preference time of the mice was measured before the administration, so that the mice with obvious preference on one cuboid of the experimental box were excluded to clear the effect of unconditional place preference on the results. […] The observation was conducted under sound insulation conditions. […] Thus, the white cuboid was used as the non-preferred side (i.e., the companion box).
# After 6 consecutive days of training and administration, the mice developed conditioned place preference.
# Each group was administered for 3 consecutive days.
# morphine-dependent mice = assay: Therapeutic effect on naloxone-induced withdrawal symptoms of morphine-dependent mice; format: in vivo, Kunming mice; conditions: for Times of jumping reactions of mice: naloxone 8.0 mg/kg ip
# Experimental: The model of morphine-dependent mice was replicated by the dose-increasing method. […] Group (1) was a blank control group, injected subcutaneously (sc) with normal saline (0.2 ml/10 g), and groups (2)˜(5) were used to replicate the model of morphine-dependent mice by the dose-increasing method.
# The administration continued for 3 days for each group. Mice were free to drink and eat. Naloxone (8.0 mg/kg, ip) was given 1 h after administrations on d1 and d3 during the treatment to induce withdrawal symptoms, and jumping reaction in 30 min and body weights before and after the inducement were observed.
# [5] = Before administration, high dose group
# [6] = Before administration, low dose group
smiles,measurement,setting,value
"CC1(C)O[C@H]2CC[C@@]3(C)[C@@H]([C@@H](O)[C@H](O)[C@@H]3[C@@](C)(O)CC[C@@H]3OC(C)(C)[C@H]4CC[C@]3(C)O4)[C@]2(C)CC[C@H]1O [the compound, limaxol A]",Effect on spontaneous activity of mice,"mice [1]; 0.4, 0.8 g/kg, ig",significantly reduce the spontaneous activity of mice
same,Number of spontaneous activities,"mice [1]; After administration (45 min), high dose 0.8 g/kg ig",84.8 ± 31.69*^Δ▴ per 10 min
same,Number of spontaneous activities,"mice [1]; After administration (45 min), low dose 0.4 g/kg ig",104.6 ± 42.12^Δ▴▴ per 10 min
same,Number of spontaneous activities,mice [1]; [5],145.5 ± 82.57 per 10 min
same,Number of spontaneous activities,mice [1]; [6],165.5 ± 69.20 per 10 min
same,Effect on excitability induced by amphetamine,"mice [2]; 0.4, 0.8 g/kg, ig",inhibit the increase of excitability induced by morphine and amphetamine
same,"Number of activities, amphetamine-induced excitability","mice [2]; After administration, high dose 0.8 g/kg ig, amphetamine 8 mg/kg",132.6 ± 26.26**^Δ▴▴ Times per min
same,"Number of activities, amphetamine-induced excitability","mice [2]; After administration, low dose 0.4 g/kg ig, amphetamine 8 mg/kg",130.6 ± 32.11**^Δ▴ Times per min
same,"Number of activities, amphetamine-induced excitability",mice [2]; [5],197.4 ± 39.30 Times per min
same,"Number of activities, amphetamine-induced excitability",mice [2]; [6],192.0 ± 45.06 Times per min
same,Duration of mice staying in companion box,mice [3],334.8 ± 94.96 s
same,Duration of mice staying in companion box,mice [3]; 6 days,385.2 ± 188.16 s
same,"Psychological dependence, place preference test",mice [3],no tendency of psychological dependence
same,"Withdrawal symptoms after administration of the compound, rats",rats,no obvious withdrawal symptoms
same,Duration of mice staying in companion box,"[4]; After administration, high dose 0.8 g/kg ig 3 days + morphine 9 mg/kg sc, 15 min observation",511.8 ± 90.66*^ΔΔ s
same,Duration of mice staying in companion box,"[4]; After administration, low dose 0.4 g/kg ig 3 days + morphine 9 mg/kg sc, 15 min observation",438.1 ± 116.45^#Δ s
same,Duration of mice staying in companion box,"[4]; Before administration (base line), high dose 0.8 g/kg + morphine 9 mg/kg group",256.3 ± 114.43 s
same,Duration of mice staying in companion box,"[4]; Before administration (base line), low dose 0.4 g/kg + morphine 9 mg/kg group",296.0 ± 142.93 s
same,Effect on conditioned place preference of the morphine-induced mice,"[4]; two doses (0.4, 0.8 g/kg) ig for 3 days",no significant effect
same,Numbers of jumping reactions of mice (mice of n = 10),"morphine-dependent mice; d 1, high dose 0.8 g/kg ig",10
same,"Numbers of jumping reactions of mice, percentage","morphine-dependent mice; d 1, high dose 0.8 g/kg ig",100%
same,Weight change: body weights of mice before and after induced withdrawal,"morphine-dependent mice; d 1, high dose 0.8 g/kg ig",0.26 ± 0.21 g
same,Times of jumping reactions of mice,"morphine-dependent mice; d 1, high dose 0.8 g/kg ig",35.0 ± 12.28 per 30 min
same,Numbers of jumping reactions of mice (mice of n = 10),"morphine-dependent mice; d 1, low dose 0.4 g/kg ig",10
same,"Numbers of jumping reactions of mice, percentage","morphine-dependent mice; d 1, low dose 0.4 g/kg ig",100%
same,Weight change: body weights of mice before and after induced withdrawal,"morphine-dependent mice; d 1, low dose 0.4 g/kg ig",0.18 ± 0.13 g
same,Times of jumping reactions of mice,"morphine-dependent mice; d 1, low dose 0.4 g/kg ig",13.5 ± 10.29 per 30 min
same,Numbers of jumping reactions of mice (mice of n = 10),"morphine-dependent mice; d 3, high dose 0.8 g/kg ig",10
same,"Numbers of jumping reactions of mice, percentage","morphine-dependent mice; d 3, high dose 0.8 g/kg ig",100%
same,Weight change: body weights of mice before and after induced withdrawal,"morphine-dependent mice; d 3, high dose 0.8 g/kg ig",0.43 ± 0.23 g
same,Times of jumping reactions of mice,"morphine-dependent mice; d 3, high dose 0.8 g/kg ig",8.5 ± 2.68 per 30 min
same,Numbers of jumping reactions of mice (mice of n = 10),"morphine-dependent mice; d 3, low dose 0.4 g/kg ig",10
same,"Numbers of jumping reactions of mice, percentage","morphine-dependent mice; d 3, low dose 0.4 g/kg ig",100%
same,Weight change: body weights of mice before and after induced withdrawal,"morphine-dependent mice; d 3, low dose 0.4 g/kg ig",0.36 ± 0.28 g
same,Times of jumping reactions of mice,"morphine-dependent mice; d 3, low dose 0.4 g/kg ig",6.2 ± 5.86 per 30 min
same,Effect on jumping reaction during induced withdrawal,"morphine-dependent mice; ig, 0.4 and 0.8 g/kg",inhibited jumping reaction
same,Effect on weight loss of the morphine-dependent mice,"morphine-dependent mice; ig, 0.4 and 0.8 g/kg",inhibited weight loss
